The values that follow come from patent publication US20220204476A1, “RNA VIRUS INHIBITOR COMPOUNDS AND USES THEREOF” (The Governors of the University of Alberta, priority 2020, published 2022).

In general, pEC50 refers to the negative decadic logarithm of the EC50, by convention in mol/L. For orientation: pIC50 means the IC50 on a negative log10 scale, so that one unit is a factor of ten.

Test [1] deals with SARS-CoV-2. Briefly: SARS-CoV-2 in vitro plaque reduction assay in Vero E6 cells. Particulars: Severe acute respiratory syndrome coronavirus 2, Vero C1008, MOI 0.0001 pfu/cell, plaques counted after 48 h, >5 μM = did not reduce plaque numbers by half at 10 μM, read-out: SARS-CoV-2 Antiviral EC50. Type of test: cell-based. For orientation: Plaque reduction counts the foci of infection that form in a cell layer.

Test [2] has as its target SARS-CoV-2 3CLP (Severe acute respiratory syndrome coronavirus 2, UniProt P0DTD1). Nature of the test: SARS-CoV-2 3CLP inhibition, FRET-based cleavage assay. Type of test: biochemical. Particulars: 80 nM SARS-CoV-2 3CLP, 100 μM substrate, 37° C., 10 min incubation, pH 7.8; read-out: 3CL Protease IC50.

Molecules are shown by their SMILES. pEC50, pIC50: −log10 of the molar value.

As to `COc1cccc2[nH]c(C(=O)N[C@@H](CC(C)C)C(=O)N[C@@H](C[C@@H]3CCCNC3=O)C(=O)COC(=O)c3sc(C)nc3C(F)(F)F)cc12` [Compound 21, (3S)-3-{[N-(4-methoxy-1H-indole-2-carbonyl)-L-leucyl]amino}-2-oxo-4-[(3S)-2-oxopiperidin-3-yl]butyl 2-methyl-4-(trifluoromethyl)-1,3-thiazole-5-carboxylate], the pEC50 in test [1] was below 5.30. Further, in test [2], the pIC50 is 7.74.
In the case of `COc1cccc2[nH]c(C(=O)N[C@@H](CC(C)C)C(=O)N[C@@H](C[C@@H]3CCCNC3=O)C(=O)COC(=O)c3cnc(C)cc3C)cc12` [Compound 22, (3S)-3-{[N-(4-methoxy-1H-indole-2-carbonyl)-L-leucyl]amino}-2-oxo-4-[(3S)-2-oxopiperidin-3-yl]butyl 4,6-dimethylpyridine-3-carboxylate], in test [1], the pEC50 is below 5.30. In addition, in test [2], the pIC50 was 7.77.
For the molecule `COc1cccc2[nH]c(C(=O)N[C@@H](CC(C)C)C(=O)N[C@@H](C[C@@H]3CCNC3=O)C(=O)COC(=O)c3c(C(F)(F)F)cccc3C(F)(F)F)cc12` [Compound 25, (3S)-3-{[N-(4-methoxy-1H-indole-2-carbonyl)-L-leucyl]amino}-2-oxo-4-[(3S)-2-oxopyrrolidin-3-yl]butyl 2,6-bis(trifluoromethyl)benzoate], the pEC50 in test [1] is above 6.60. For the same molecule, in test [2], the pIC50 is 7.74.
The corresponding values for `COc1cccc2[nH]c(C(=O)N[C@@H](CC(C)C)C(=O)N[C@@H](C[C@@H]3CCNC3=O)C(=O)COC(=O)C(C)(C)C(F)(F)F)cc12` [Compound 27, (3S)-3-{[N-(4-methoxy-1H-indole-2-carbonyl)-L-leucyl]amino}-2-oxo-4-[(3S)-2-oxopyrrolidin-3-yl]butyl 3,3,3-trifluoro-2,2-dimethylpropanoate] are below 5.30 and 7.54.
The corresponding values for `COc1cccc2[nH]c(C(=O)N[C@@H](CC(C)C)C(=O)N[C@@H](C[C@@H]3CCCNC3=O)C(=O)COc3ccc(S(C)(=O)=O)cc3)cc12` [Compound 30, N-[(2S)-1-({(2S)-4-[4-(methanesulfonyl)phenoxy]-3-oxo-1-[(3S)-2-oxopiperidin-3-yl]butan-2-yl}amino)-4-methyl-1-oxopentan-2-yl]-4-methoxy-1H-indole-2-carboxamide] are below 5.30 and 7.28.
The corresponding values for `CC(C)C[C@H](NC(=O)OCc1ccccc1)C(=O)N[C@H](C#N)C[C@@H]1CCCNC1=O` [Compound 66, N^2-[(benzyloxy)carbonyl]-N-{(1S)-1-cyano-2-[(3S)-2-oxopiperidin-3-yl]ethyl}-L-leucinamide] are below 5.30 and 6.47.
As to `CC(C)C[C@H](NC(=O)OCC1c2ccccc2-c2ccccc21)C(=O)N[C@H](C#N)C[C@@H]1CCCNC1=O` [Compound 67, N-{(1S)-1-cyano-2-[(3S)-2-oxopiperidin-3-yl]ethyl}-N^2-{[(9H-fluoren-9-yl)methoxy]carbonyl}-L-leucinamide], the pEC50 in test [1] was 5.39. For the same molecule, in test [2], the pIC50 was 6.77.
With `COc1cc(Cl)cc2[nH]c(C(=O)N[C@@H](CC(C)C)C(=O)N[C@H](C#N)C[C@@H]3CCCNC3=O)cc12` [Compound 68, 6-chloro-N-[(2S)-1-({(1S)-1-cyano-2-[(3S)-2-oxopiperidin-3-yl]ethyl}amino)-4-methyl-1-oxopentan-2-yl]-4-methoxy-1H-indole-2-carboxamide], the pEC50 in test [1] was 5.66. The pIC50 in test [2] was 8.04.
For `CC(C)C[C@H](NC(=O)c1nc(-c2ccccc2)c[nH]1)C(=O)N[C@H](C#N)C[C@@H]1CCCNC1=O` [Compound 75, N-{(1S)-1-cyano-2-[(3S)-2-oxopiperidin-3-yl]ethyl}-N^2-(4-phenyl-1H-imidazole-2-carbonyl)-L-leucinamide], the pEC50 in test [1] was below 5.30. Also, the pIC50 in test [2] was 6.80.
On to `CC(C)C[C@H](NC(=O)C1(O)CCCC1)C(=O)N[C@H](C#N)C[C@@H]1CCCNC1=O` [Compound 76, N-{(1S)-1-cyano-2-[(3S)-2-oxopiperidin-3-yl]ethyl}-N^2-(1-hydroxycyclopentane-1-carbonyl)-L-leucinamide], for which, in test [1], the pEC50 was below 5.30. Besides, the pIC50 in test [2] is 6.02.
As to `CC(C)C[C@H](NCC1CC1)C(=O)N[C@H](C#N)C[C@@H]1CCCNC1=O` [Compound 77, N-{(1S)-1-cyano-2-[(3S)-2-oxopiperidin-3-yl]ethyl}-N^2-(cyclopropylmethyl)-L-leucinamide], the pEC50 in test [1] was below 5.30. Also, in test [2], the pIC50 is 4.77.
For `CC(C)C[C@H](NCc1ccc[nH]c1=O)C(=O)N[C@H](C#N)C[C@@H]1CCCNC1=O` [Compound 78, N-{(1S)-1-cyano-2-[(3S)-2-oxopiperidin-3-yl]ethyl}-N^2-[(2-oxo-1,2-dihydropyridin-3-yl)methyl]-L-leucinamide], the pEC50 in test [1] was below 5.30. Besides, in test [2], the pIC50 was 4.33.
For the molecule `CC(C)C[C@H](NC(=O)c1cc2ccccc2o1)C(=O)N[C@H](C#N)C[C@@H]1CCCNC1=O` [Compound 79, N-[(2S)-1-({(1S)-1-cyano-2-[(3S)-2-oxopiperidin-3-yl]ethyl}amino)-4-methyl-1-oxopentan-2-yl]-1-benzofuran-2-carboxamide], the pEC50 in test [1] is 5.35. For the same molecule, the pIC50 in test [2] was 6.60.
The corresponding values for `CC(C)C[C@H](NC(=O)[C@H]1CCCO1)C(=O)N[C@H](C#N)C[C@@H]1CCCNC1=O` [Compound 80, N-{(1S)-1-cyano-2-[(3S)-2-oxopiperidin-3-yl]ethyl}-N^2-[(2R)-oxolane-2-carbonyl]-L-leucinamide] are below 5.30 and 6.15.
In the case of `Cc1ccc(C(=O)N[C@@H](CC(C)C)C(=O)N[C@H](C#N)C[C@@H]2CCCNC2=O)cn1` [Compound 81, N-{(1S)-1-cyano-2-[(3S)-2-oxopiperidin-3-yl]ethyl}-N^2-(6-methylpyridine-3-carbonyl)-L-leucinamide], the negative logarithm of the EC50 (pEC50) in test [1] is below 5.30. In test [2], the negative-log IC50 (pIC50) was 6.21.
As to `CC(C)C[C@H](NS(=O)(=O)c1cccc2c1OCCO2)C(=O)N[C@H](C#N)C[C@@H]1CCCNC1=O` [Compound 82, N-{(1S)-1-cyano-2-[(3S)-2-oxopiperidin-3-yl]ethyl}-N^2-(2,3-dihydro-1,4-benzodioxine-5-sulfonyl)-L-leucinamide], the negative-log EC50 (pEC50) in test [1] was below 5.30. Besides, the pIC50 in test [2] was 5.62.
The corresponding values for `CC(C)C[C@H](NS(=O)(=O)N1CCCCC1)C(=O)N[C@H](C#N)C[C@@H]1CCCNC1=O` [Compound 83, N-{(1S)-1-cyano-2-[(3S)-2-oxopiperidin-3-yl]ethyl}-N^2-(piperidine-1-sulfonyl)-L-leucinamide] are below 5.30 and 5.35.
The corresponding values for `CC(C)C[C@H](NS(=O)(=O)C1CCCCC1)C(=O)N[C@H](C#N)C[C@@H]1CCCNC1=O` [Compound 84, N-{(1S)-1-cyano-2-[(3S)-2-oxopiperidin-3-yl]ethyl}-N^2-(cyclohexanesulfonyl)-L-leucinamide] are below 5.30 and 5.51.
The corresponding values for `Cc1ccc(S(=O)(=O)N[C@@H](CC(C)C)C(=O)N[C@H](C#N)C[C@@H]2CCCNC2=O)cn1` [Compound 85, N-{(1S)-1-cyano-2-[(3S)-2-oxopiperidin-3-yl]ethyl}-N^2-(6-methylpyridine-3-sulfonyl)-L-leucinamide] are below 5.30 and 5.19.
On to `CC(C)(C)C[C@H](NC(=O)OCC1c2ccccc2-c2ccccc21)C(=O)N[C@H](C#N)C[C@@H]1CCCNC1=O` [Compound 86, N-{(1S)-1-cyano-2-[(3S)-2-oxopiperidin-3-yl]ethyl}-N^2-{[(9H-fluoren-9-yl)methoxy]carbonyl}-4-methyl-L-leucinamide], for which the pEC50 in test [1] was 5.37. In test [2], the pIC50 was 6.96.
Take `Cc1cc(C)c(C(=O)OCC(=O)[C@H](C[C@@H]2CCCNC2=O)NC(=O)[C@H](CC(C)(C)C)NC(=O)[C@H]2CCCO2)c(C)n1` [Compound 87, (3S)-3-({4-methyl-N-[(2R)-oxolane-2-carbonyl]-L-leucyl}amino)-2-oxo-4-[(3S)-2-oxopiperidin-3-yl]butyl 2,4,6-trimethylpyridine-3-carboxylate]: in test [1], the pEC50 is 5.72. The negative logarithm of the IC50 (pIC50) in test [2] was 6.70.
The corresponding values for `CC(C)(C)C[C@H](NC(=O)c1nc2ccccc2[nH]1)C(=O)N[C@H](C#N)C[C@@H]1CCCNC1=O` [Compound 88, N-[(2S)-1-({(1S)-1-cyano-2-[(3S)-2-oxopiperidin-3-yl]ethyl}amino)-4,4-dimethyl-1-oxopentan-2-yl]-1H-benzimidazole-2-carboxamide] are below 5.30 and 7.40.
On to `CC(C)(C)C[C@H](NC(=O)[C@@H]1CCCN1C(=O)OCc1ccccc1)C(=O)N[C@H](C#N)C[C@@H]1CCCNC1=O` [Compound 89, 1-[(benzyloxy)carbonyl]prolyl-N-{(1S)-1-cyano-2-[(3S)-2-oxopiperidin-3-yl]ethyl}-4-methyl-L-leucinamide], for which, in test [1], the pEC50 was below 5.30. In addition, the pIC50 in test [2] is 5.55.
On to `CC(C)(C)C[C@H](NC(=O)[C@@H]1CCCN1)C(=O)N[C@H](C#N)C[C@@H]1CCCNC1=O` [Compound 90, prolyl-N-{(1S)-1-cyano-2-[(3S)-2-oxopiperidin-3-yl]ethyl}-4-methyl-L-leucinamide], for which the pEC50 in test [1] was below 5.30. The negative logarithm of the IC50 (pIC50) in test [2] is 5.96.
The corresponding values for `CC(C)C[C@H](NCc1ncco1)C(=O)N[C@H](C#N)C[C@@H]1CCCNC1=O` [Compound 91, N-{(1S)-1-cyano-2-[(3S)-2-oxopiperidin-3-yl]ethyl}-N^2-[(1,3-oxazol-2-yl)methyl]-L-leucinamide] are below 5.30 and 4.43.
As for `CC(C)C[C@H](NC[C@@H]1CCCO1)C(=O)N[C@H](C#N)C[C@@H]1CCCNC1=O` [Compound 92, N-{(1S)-1-cyano-2-[(3S)-2-oxopiperidin-3-yl]ethyl}-N^2-{[(2S)-oxolan-2-yl]methyl}-L-leucinamide], the pEC50 in test [1] was below 5.30. Moreover, the pIC50 in test [2] is 3.98.
